Read-outs that look alike come from different tables or passages of the source.
Experiments:
Assay type in all cases: cell-based
[1] = tested on: third stage larvae of Haemonchus contortus; test: Haemonchus contortus, Larvae Stage 3 (HcL3) In Vitro Assay; details: Haemonchus contortus, 96 h
D. immitis L4 larvae = test: Dirofilaria immitis, L4 Stage (DiL4) In Vitro Assay; details: for minimal effective concentration: Dirofilaria immitis, 72 h, read-out: DiL4 MED, Minimum Effective Dose, D. immitis L4 larvae motility, in vitro; for DiMf/DiL4: larval stage selectivity, ratio of DiMf MED to DiL4 MED
[2] = tested on: microfilariae of Dirofilaria immitis; test: Dirofilaria immitis, Microfilaria (DiMf) In Vitro Assay; details: Dirofilaria immitis, 72 h, read-out: DiMf MED, Minimum Effective Dose, D. immitis microfilariae motility, in vitro
[3] = read-out: HcL3 MED, Minimum Effective Dose, H. contortus third stage larvae, approximately 96 hours
[4] = read-out: HcL3 MED, approximately 96 hours incubation, multiple-resistant field isolate

| SMILES | minimal effective concentration [1, 3] [µM] | minimal effective concentration (D. immitis L4 larvae) [µM] | DiMf/DiL4 (D. immitis L4 larvae) | minimal effective concentration [2] [µM] | minimal effective concentration ([1]; read-out: HcL3 MED (symbol after Ex#), approximately 96 hours incubation, multiple-resistant field isolate) [µM] | minimal effective concentration [1, 4] [µM] | minimal effective concentration ([1]; read-out: HcL3 MED, Haemonchus contortus third stage larvae in vitro, class mark appended to the Ex # in Table 3) [µM] |
| --- | --- | --- | --- | --- | --- | --- | --- |
| Cc1[nH]ncc1Cc1ccc(C[C@H]2OC(=O)[C@H](CC(C)C)N(C)C(=O)[C@@H](C)OC(=O)[C@H](CC(C)C)N(C)C(=O)[C@@H](Cc3ccc(Cc4cn[nH]c4C)cc3)OC(=O)[C@H](CC(C)C)N(C)C(=O)[C@@H](C)OC(=O)[C@H](CC(C)C)N(C)C2=O)cc1 [Example 3-243, (3S,6R,9S,12R,15S,18R,21S,24R)-3,9,15,21-tetraisobutyl-4,6,10,16,18,22-hexamethyl-12,24-bis(4-((5-methyl-1H-pyrazol-4-yl)methyl)benzyl)-1,7,13,19-tetraoxa-4,10,16,22-tetraazacyclotetracosan-2,5,8,11,14,17,20,23-octaone] | 7.5 | 0.001 | 1 | 0.001 | – | – | – |
| CC(C)C[C@H]1C(=O)O[C@H](Cc2ccc(Cc3cncnc3C(F)(F)F)cc2)C(=O)N(C)[C@@H](CC(C)C)C(=O)O[C@H](C)C(=O)N(C)[C@@H](CC(C)C)C(=O)O[C@H](Cc2ccc(Cc3cncnc3C(F)(F)F)cc2)C(=O)N(C)[C@@H](CC(C)C)C(=O)O[C@H](C)C(=O)N1C [Example 3-318, (3S,6R,9S,12R,15S,18R,21S,24R)-3,9,15,21-tetraisobutyl-4,6,10,16,18,22-hexamethyl-12,24-bis(4-((4-(trifluoromethyl)pyrimidin-5-yl)methyl)benzyl)-1,7,13,19-tetraoxa-4,10,16,22-tetraazacyclotetracosan-2,5,8,11,14,17,20,23-octaone] | 0.55 | 3e-05 | 10 | 0.0003 | – | – | – |
| CC(C)C[C@H]1C(=O)O[C@H](Cc2ccc(Cc3ncco3)cc2)C(=O)N(C)[C@@H](CC(C)C)C(=O)O[C@H](C)C(=O)N(C)[C@@H](CC(C)C)C(=O)O[C@H](Cc2ccccc2)C(=O)N(C)[C@@H](CC(C)C)C(=O)O[C@H](C)C(=O)N1C [Example 4-30, (3S,6R,9S,12R,15S,18R,21S,24R)-6-benzyl-3,9,15,21-tetraisobutyl-4,10,12,16,22,24-hexamethyl-18-(4-(oxazol-2-ylmethyl)benzyl)-1,7,13,19-tetraoxa-4,10,16,22-tetraazacyclotetracosan-2,5,8,11,14,17,20,23-octaone] | 1 | 0.001 | 1 | 0.001 | < 1 | ≤ 1 | – |
| Cc1ncccc1Cc1ccc(C[C@@H]2OC(=O)[C@H](CC(C)C)N(C)C(=O)[C@@H](C)OC(=O)[C@@H](CC(C)C)N(C)C(=O)[C@@H](Cc3ccc(Cc4cccnc4C)cc3)OC(=O)[C@@H](CC(C)C)N(C)C(=O)[C@@H](C)OC(=O)[C@H](CC(C)C)N(C)C2=O)cc1 [Example 3-273, (3S,6R,9R,12R,15R,18R,21S,24S)-3,9,15,21-tetraisobutyl-4,6,10,16,18,22-hexamethyl-12,24-bis[[4-[(2-methyl-3-pyridyl)methyl]phenyl]methyl]-1,7,13,19-tetraoxa-4,10,16,22-tetrazacyclotetracosane-2,5,8,11,14,17,20,23-octaone] | 1 | 0.0003 | 6.7 | 0.002 | – | ≤ 1 | < 1 |
| CC(C)C[C@H]1C(=O)O[C@H](Cc2ccc(C(O)c3coc4ccccc34)cc2)C(=O)N(C)[C@@H](CC(C)C)C(=O)O[C@H](C)C(=O)N(C)[C@@H](CC(C)C)C(=O)O[C@H](Cc2ccccc2)C(=O)N(C)[C@@H](CC(C)C)C(=O)O[C@H](C)C(=O)N1C (stereo partly drawn) [Example 4-21, (3S,6R,9S,12R,15S,18R,21S,24R)-6-(4-(benzofuran-3-yl(hydroxy)methyl)benzyl)-18-benzyl-3,9,15,21-tetraisobutyl-4,10,12,16,22,24-hexamethyl-1,7,13,19-tetraoxa-4,10,16,22-tetraazacyclotetracosan-2,5,8,11,14,17,20,23-octaone] | > 10 | 0.001 | 50 | 0.05 | – | – | – |

From patent publication US11771738B2 (Zoetis Services LLC, priority 2018, dated 2023)
